From US20230331739A1, “INDOLO HEPTAMYL OXIME ANALOG CRYSTAL AS PARP INHIBITOR AND METHOD FOR PREPARING SAME” (CHIA TAI TIANQING PHARMACEUTICAL GROUP CO., LTD., priority 2020, published 2023)

What was measured:
CYP1A2 = CYP1A2 (Homo sapiens (Human), UniProt P05177); experiment: Inhibition against cytochrome P450 isoenzymes, CYP1A2; type: in vitro ADME; conditions: human liver microsomes
Procedure: (§1) The inhibition of the test compound against different subtypes of the human cytochrome P450 isoenzyme was determined. The test compound, a standard inhibitor (100×final concentration) and a mixed substrate working solution were prepared; the microsomes frozen in a refrigerator at −80° C. were taken out and thawed. […]

CYP2C9 = CYP2C9 (Homo sapiens (Human), UniProt P11712); experiment: Inhibition against cytochrome P450 isoenzymes, CYP2C9; type: in vitro ADME; conditions: human liver microsomes
Procedure: as §1

[1] = system: human breast cancer MDA-MB-436 cell xenograft tumor; experiment: In vivo pharmacodynamic study in subcutaneous MDA-MB-436 xenograft tumor model; set-up: species or system BALB/c nude mouse; conditions: for Tumor volume (day 27): Mean ± SEM; for T/C / TGI: day 27
Source text: Objective: To study the in vivo efficacy of the test compound in BALB/c nude mouse model with subcutaneous human breast cancer MDA-MB-436 cell xenograft tumor.
Materials: Age and body weight: female BALB/c nude mice, aged 6-8 weeks, 18-22 g. The study started after 3-7 days of adaptive feeding. The animal information card of each cage was labeled with the following information about the animals: number, sex, strain, receipt date, regime, study number, group and start of treatment. All the cages, padding and drinking water were sterilized before use. The cages, feed and drinking water were refreshed twice a week. The animals were identified with ear tags. Test samples: Nirapariband and compound 1. All the test samples were prepared with 10% DMSO+90% (20% HP-β-CD) as vehicle, and the blank control group was administered with the vehicle alone.
1. Cell culturing: Human breast cancer MDA-MB-436 cells (ATCC, Manassas, VA, catalog No.: HTB-130) were cultured in an RPMI-1640 culture medium containing 10% fetal bovine serum and 1% Anti-anti through in vitro monolayer culture in an incubator at 37° C./5% CO2. The cells were digested with trypsin-EDTA twice a week for passaging as per conventional practice. At a cell saturation of 80%-90% and a required number, the cells were collected, counted and grafted.
2. Tumor cell grafting (tumor grafting): 0.2 mL (1×10^7 cells) of MDA-MB-436 cells (along with matrigel in a volume ratio of 1:1) was subcutaneously grafting on the right back of each mouse, and the mice were randomly divided into groups for administration after the mean tumor volume was approximately 318 mm^3.
3. Daily observation of animals: the animals were monitored daily for health and death, and routine examinations include observation of the effect on tumor growth and the therapy on the daily performance of the animals, such as behavioral activities, food and water intake, change in body weight, appearance, or other abnormal conditions.
4. Tumor measurement and experimental indexes: the experimental indexes were to investigate whether the tumor growth was inhibited or delayed or the tumor was cured. Tumor diameters were measured twice weekly using a vernier caliper. The tumor volume was calculated using the following formula: V=0.5 a×b^2, where a and b represent the long diameter and short diameter of the tumor, respectively. The anti-tumor efficacy of the compound was evaluated by TGI (%) or relative tumor proliferation rate T/C (%). TGI (%) refers to the tumor growth inhibition. Calculation of TGI (%): TGI (%)=[(1−(mean tumor volume at the end of administration of a treatment group−mean tumor volume at the start of administration of the treatment group))/(mean tumor volume at the end of treatment of the solvent control group−mean tumor volume at the start of treatment of the solvent control group)]×100%. The calculation formula for relative tumor proliferation rate T/C (%) was as follows: T/C (%)=TRTV/CRTV×100% (TRTV: RTV of treatment group; CRTV: RTV of negative control group). Relative tumor volume (RTV) was calculated based on the results of tumor measurement. The calculation formula was: RTV=Vt/V0, where V0 was the mean tumor volume measured at the time of grouping and administration (i.e., do), Vt was the mean tumor volume at a certain measurement, and the data of TRTV and CRTV were obtained on the same day.
5. Statistical analysis: including mean and standard error of mean (SEM) of tumor volume at each time point in each group. […] The experimental data were analyzed using one-way ANOVA and Games-Howell method. All the data were analyzed using SPSS 17.0. p<0.05 was defined as significance.

Chain of CYP2C9 (P11712 whole entry): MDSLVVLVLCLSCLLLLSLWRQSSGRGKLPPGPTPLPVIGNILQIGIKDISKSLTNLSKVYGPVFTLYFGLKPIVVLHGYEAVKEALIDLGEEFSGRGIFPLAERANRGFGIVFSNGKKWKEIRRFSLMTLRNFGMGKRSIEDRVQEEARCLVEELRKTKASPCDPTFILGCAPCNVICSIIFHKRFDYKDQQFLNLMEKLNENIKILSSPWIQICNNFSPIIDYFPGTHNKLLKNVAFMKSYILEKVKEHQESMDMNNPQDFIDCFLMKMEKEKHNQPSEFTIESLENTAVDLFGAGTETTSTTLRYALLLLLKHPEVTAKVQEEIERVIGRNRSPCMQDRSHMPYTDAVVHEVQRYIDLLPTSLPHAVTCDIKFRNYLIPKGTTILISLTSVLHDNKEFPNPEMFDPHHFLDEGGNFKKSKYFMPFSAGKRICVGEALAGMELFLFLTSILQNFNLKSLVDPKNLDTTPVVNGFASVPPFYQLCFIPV
Chain of CYP1A2 (P05177 whole entry): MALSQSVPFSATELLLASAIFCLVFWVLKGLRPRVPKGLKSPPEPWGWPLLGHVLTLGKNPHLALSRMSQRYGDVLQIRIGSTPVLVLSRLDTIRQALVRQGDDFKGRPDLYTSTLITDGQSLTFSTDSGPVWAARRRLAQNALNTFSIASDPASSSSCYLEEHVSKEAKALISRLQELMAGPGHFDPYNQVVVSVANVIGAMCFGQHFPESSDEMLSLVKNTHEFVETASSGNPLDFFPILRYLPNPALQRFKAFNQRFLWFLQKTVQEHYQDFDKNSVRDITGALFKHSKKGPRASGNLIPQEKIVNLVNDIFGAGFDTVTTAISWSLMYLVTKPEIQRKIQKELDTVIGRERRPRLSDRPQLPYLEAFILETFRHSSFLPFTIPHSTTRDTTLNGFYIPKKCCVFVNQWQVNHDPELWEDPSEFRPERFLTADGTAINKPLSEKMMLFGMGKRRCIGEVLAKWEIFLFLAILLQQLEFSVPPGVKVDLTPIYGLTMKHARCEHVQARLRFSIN

Question: Which results are given for `C[C@]1(c2ccc(-c3[nH]c4cc(F)cc5c4c3CONC5=O)cc2)CCCN1` [Compound 1]?
Answer: IC50 (CYP1A2): > 50 µM; IC50 (CYP2C9): > 50 µM; Tumor volume (day 27) ([1]; 12.5 mg/kg PO QD × 28 days): 377 ± 149 mm^3; T/C ([1]; 12.5 mg/kg PO QD × 28 days): 23.79%; TGI ([1]; 12.5 mg/kg PO QD × 28 days): 95.34%; Tumor volume (day 27) ([1]; 25 mg/kg PO QD × 28 days): 132 ± 32 mm^3; T/C ([1]; 25 mg/kg PO QD × 28 days): 8.31%; TGI ([1]; 25 mg/kg PO QD × 28 days): 114.69%; Tumor volume (day 27) ([1]; 50 mg/kg PO QD × 28 days): 91 ± 14 mm^3; T/C ([1]; 50 mg/kg PO QD × 28 days): 5.76%; TGI ([1]; 50 mg/kg PO QD × 28 days): 117.86%
